Format in all cases: cell-based
One experiment deals with T1, human JAK1 (Homo sapiens, UniProt P23458).
T1 construct: expressed in transfected cells; host or cells: U4A cells (JAK1-deficient derivative of the human fibroblast line 2fGH), transduced with a baculovirus mammalian expression system
Nature of the experiment: JAK1 reconstitution in U4A and 2fGH cells (phosphor-STAT1 western blot, Taqman mRNA). Here is the method:
2fGH and U4A cells were obtained from the Cleveland Clinic. 2fGH is a human fibroblast cell line and U4A cell line is a derivative 2fGH harboring a defect in JAK1 expression (Muller, et al., Nature 366, 129-135 (1993)). Green fluoroscent protein (GFP) or human JAK1 was transduced in U4A cells by baculovirus mammalian expression system. After 24 hours post transduction, the cells were treated with DMSO, Example 1 (10 μM), IFNα (100 U/ml), IFNβ (100 U/ml), or IFNγ (100 U/ml). Untransduced U4A cells and 2fGH cells were included as controls for 6 or 18 hours. The cells were harvested at indicated time points and used for detecting phosphor-STAT1 by western blot (FIG. 10, panel A) or for mRNA analysis by Taqman quantitation (FIG. 10, panel B).
The total cell lysates were analyzed on a 4-20% SDS-PAGE gradient gel and followed by immunoblotting using anti-phopho STAT1 antibody (Cell Signaling). The level of actin was monitored as a loading control. The bands were visualized by the alkaline phosphatase activity conjugated with the secondary antibody (Promega) using ProtoBlot II AP system (Promega).
Gene expression was measured using TaqMan Fast Universal PCR Master Mix (Applied Biosystems) and gene specific probes and murine primers in HT7900 FAST System (Invitrogen). As housekeeping genes, actin and GAPDH were used for normalization. Data was calculated by the ΔΔCt method and fold change determined compared to non-treated control samples.

In experiment [1] the test system is ISG56 (Interferon-Stimulated Gene 56) promoter ISRE. Nature of the experiment: ISG56 luciferase reporter assay in HEK 293 cells. Particulars: Homo sapiens, HEK293; HEK 293 reporter, 24 hours; 100% = small molecule control test compound; read-out: ISG56 (Average Max Response) %. The procedure, abridged: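 HEK 293 cells stably carrying a firefly luciferase reporter driven by the ISG56 promoter ISRE were incubated with compounds (11-point, 3-fold dilutions) for 24 h at 37 °C, 10,000 cells/well. Steady-Glo luminescence was normalized to DMSO and control-agonist wells, and pEC50 came from a four-parameter fit.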

Experiment [2] relates to respiratory syncytial virus (RSV). Briefly: RSV plaque assay on HEp-2 cells. On the procedure: A broad spectrum of antiviral activity of Example 1 was accessed by testing it for potency against other viruses. (See FIG. 8). […] RSV (long form) was inoculated on the layer of HEp-2 cells at multiplicity of infection of <0.001. After 4 hour post infection, the inoculum was replaced with 0.3% agarose containing MEM and various concentration of Example 1 or IFNα. The cells were incubated for up to 5-6 days until the plaques were visible. The cells were then fixed with 3% formaldehyde and stained with neutral red for visualization.

Structures are written as SMILES.

T1 sequence (P23458 whole entry): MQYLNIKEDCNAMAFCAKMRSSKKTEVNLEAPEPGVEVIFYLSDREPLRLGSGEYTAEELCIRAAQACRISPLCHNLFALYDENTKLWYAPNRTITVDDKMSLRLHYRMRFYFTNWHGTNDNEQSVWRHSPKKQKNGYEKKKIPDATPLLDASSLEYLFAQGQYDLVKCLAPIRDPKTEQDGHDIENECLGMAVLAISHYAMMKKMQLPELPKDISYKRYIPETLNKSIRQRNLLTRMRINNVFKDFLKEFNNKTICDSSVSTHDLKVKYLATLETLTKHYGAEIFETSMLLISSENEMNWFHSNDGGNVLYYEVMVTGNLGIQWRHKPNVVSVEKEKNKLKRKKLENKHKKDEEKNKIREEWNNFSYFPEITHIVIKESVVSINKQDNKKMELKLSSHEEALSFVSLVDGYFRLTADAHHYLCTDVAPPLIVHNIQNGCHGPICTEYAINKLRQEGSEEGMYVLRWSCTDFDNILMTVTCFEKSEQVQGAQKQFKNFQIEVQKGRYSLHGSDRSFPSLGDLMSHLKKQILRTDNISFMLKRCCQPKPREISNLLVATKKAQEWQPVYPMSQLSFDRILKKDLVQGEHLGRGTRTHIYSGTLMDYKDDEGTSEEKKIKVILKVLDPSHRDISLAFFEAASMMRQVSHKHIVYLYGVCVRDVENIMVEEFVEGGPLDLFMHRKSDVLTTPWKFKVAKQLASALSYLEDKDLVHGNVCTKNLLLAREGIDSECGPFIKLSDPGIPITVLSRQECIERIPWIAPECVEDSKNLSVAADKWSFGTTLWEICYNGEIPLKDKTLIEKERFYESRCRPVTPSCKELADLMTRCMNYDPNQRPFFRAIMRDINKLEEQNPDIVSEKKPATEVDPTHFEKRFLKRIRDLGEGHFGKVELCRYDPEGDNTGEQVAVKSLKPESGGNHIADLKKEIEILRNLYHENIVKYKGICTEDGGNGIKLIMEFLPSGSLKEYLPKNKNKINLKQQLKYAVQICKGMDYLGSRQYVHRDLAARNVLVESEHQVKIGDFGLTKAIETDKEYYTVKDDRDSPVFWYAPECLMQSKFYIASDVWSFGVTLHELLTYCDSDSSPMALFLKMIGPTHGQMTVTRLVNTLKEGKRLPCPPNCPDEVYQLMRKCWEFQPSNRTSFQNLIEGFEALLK

`FC(F)(F)c1cc(C(F)(F)F)c2ccc3nc(-c4nnco4)cn3c2n1` [Compound 1, 2-[2,4-bis(trifluoromethyl)imidazo[1,2-a]1,8-naphthyridin-8-yl]-1,3,4-oxadiazole]: on human JAK1 (10 μM), the “CXCL9 expression in U4A cells transduced with JAK1” value was “marked up-regulation” and the “OAS2 mRNA in parental cell line (2fGH)” value was “marked increase”. Moreover, on human JAK1 (Example 1 10 μM, IFNα 100 U/ml), the “activation of STAT1 in U4A cells transduced with JAK1” value is “activation of STAT1 was observed” and the “p-STAT1 in U4A cells (JAK1 deficient) transduced with GFP” value is recorded as “not present”. For the same compound, the Emax in experiment [1] is 302%. Also, the RSV plaques entry in experiment [2] (1 μM, compared to DMSO-only) is on record as “reduced the number of plaques”. The RSV plaques entry in experiment [2] (5 μM) was “no visible clear plaque”.
